Active and inactive are the calls of the source. No cut-off for these calls is given here.
How the values were obtained:
[1] = molecular target: T1, Vitamin D3 receptor (Mus musculus) (UniProt P48281); experiment: Agonist activity at VDR in mouse 4T1 cells assessed as induction of Cyp24a1 gene at 0.1 to 10 uM measured after 24 hrs by RT-qPCR analysis; assay type: cell-based; settings: filed as agonist, dose 0.1-10 µM
T1 sequence (whole entry): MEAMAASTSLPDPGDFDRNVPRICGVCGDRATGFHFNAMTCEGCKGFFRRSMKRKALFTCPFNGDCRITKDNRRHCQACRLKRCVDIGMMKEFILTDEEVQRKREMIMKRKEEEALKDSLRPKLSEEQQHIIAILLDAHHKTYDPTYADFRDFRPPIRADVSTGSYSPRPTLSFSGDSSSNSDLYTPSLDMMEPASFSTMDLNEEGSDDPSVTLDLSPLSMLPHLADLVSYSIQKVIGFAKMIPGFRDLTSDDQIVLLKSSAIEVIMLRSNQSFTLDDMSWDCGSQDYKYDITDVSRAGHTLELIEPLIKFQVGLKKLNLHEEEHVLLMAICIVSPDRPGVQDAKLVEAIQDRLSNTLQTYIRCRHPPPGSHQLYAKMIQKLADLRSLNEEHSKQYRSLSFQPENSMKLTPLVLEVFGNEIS

[2] = molecular target: T1, Vitamin D3 receptor (Mus musculus); experiment: Agonist activity at VDR in mouse 4TO7 cells assessed as induction of Cyp24a1 gene at 0.1 to 10 uM measured after 24 hrs by RT-qPCR analysis; assay type: cell-based; settings: filed as agonist, dose 0.1-10 µM
[3] = molecular target: T2, Protein deacetylase HDAC6 (Mus musculus) (UniProt Q9Z2V5); experiment: Inhibition of HDAC6 in mouse 4T1 cells assessed as induction of tubulin acetylation at 10 uM measured after 6 hrs by Western blot analysis; assay type: cell-based
T2 sequence (whole entry): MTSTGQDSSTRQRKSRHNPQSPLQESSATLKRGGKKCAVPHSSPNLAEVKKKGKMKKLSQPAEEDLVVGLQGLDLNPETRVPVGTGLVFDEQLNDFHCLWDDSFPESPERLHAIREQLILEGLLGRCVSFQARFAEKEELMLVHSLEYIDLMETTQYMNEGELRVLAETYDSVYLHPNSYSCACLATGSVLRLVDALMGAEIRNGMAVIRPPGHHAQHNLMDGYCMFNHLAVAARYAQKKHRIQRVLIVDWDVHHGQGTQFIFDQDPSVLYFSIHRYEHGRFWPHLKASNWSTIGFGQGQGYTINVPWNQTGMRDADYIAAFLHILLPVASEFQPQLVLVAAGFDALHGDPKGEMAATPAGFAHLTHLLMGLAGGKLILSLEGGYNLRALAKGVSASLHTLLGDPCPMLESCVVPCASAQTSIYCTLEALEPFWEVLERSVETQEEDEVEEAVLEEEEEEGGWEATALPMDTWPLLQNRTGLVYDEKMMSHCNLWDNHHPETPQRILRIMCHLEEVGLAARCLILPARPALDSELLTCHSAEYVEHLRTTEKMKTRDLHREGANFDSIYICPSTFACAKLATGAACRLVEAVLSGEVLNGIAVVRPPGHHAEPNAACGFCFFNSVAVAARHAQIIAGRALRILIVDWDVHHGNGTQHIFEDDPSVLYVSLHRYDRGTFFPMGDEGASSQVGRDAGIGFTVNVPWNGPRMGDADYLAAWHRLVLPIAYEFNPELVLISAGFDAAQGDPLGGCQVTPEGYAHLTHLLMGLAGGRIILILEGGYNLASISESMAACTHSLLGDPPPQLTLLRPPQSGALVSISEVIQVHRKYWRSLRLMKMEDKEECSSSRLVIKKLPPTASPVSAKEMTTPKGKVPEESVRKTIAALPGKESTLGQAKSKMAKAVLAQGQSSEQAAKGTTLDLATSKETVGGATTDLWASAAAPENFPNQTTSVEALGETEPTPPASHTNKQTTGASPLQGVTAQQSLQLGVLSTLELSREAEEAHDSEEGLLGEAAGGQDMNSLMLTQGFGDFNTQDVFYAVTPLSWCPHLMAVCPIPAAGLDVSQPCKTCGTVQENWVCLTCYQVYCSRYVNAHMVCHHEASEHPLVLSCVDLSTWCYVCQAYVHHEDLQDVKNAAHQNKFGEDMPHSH

4T1 = experiment: Inhibition of class 1 HDAC in mouse 4T1 cells assessed as induction of H3K27 acetylation at 10 uM measured after 6 hrs by Western blot analysis; assay type: cell-based
[4] = molecular target: T2, Protein deacetylase HDAC6 (Mus musculus); experiment: Inhibition of HDAC6 in mouse 4TO7 cells assessed as induction of tubulin acetylation at 10 uM measured after 6 hrs by Western blot analysis; assay type: cell-based
4TO7 [5] = experiment: Inhibition of class 1 HDAC in mouse 4TO7 cells assessed as induction of H3K9 acetylation at 10 uM measured after 6 hrs by Western blot analysis; assay type: cell-based
4TO7 [6] = experiment: Inhibition of class 1 HDAC in mouse 4TO7 cells assessed as induction of H3K27 acetylation at 10 uM measured after 6 hrs by Western blot analysis; assay type: cell-based
[7] = molecular target: T2, Protein deacetylase HDAC6 (Mus musculus); experiment: Inhibition of HDAC6 in mouse B16-F10 cells assessed as induction of tubulin acetylation at 10 uM measured after 6 hrs by Western blot analysis; assay type: cell-based
B16-F10 [8] = experiment: Inhibition of class 1 HDAC in mouse B16-F10 cells assessed as induction of H3K9 acetylation at 10 uM measured after 6 hrs by Western blot analysis; assay type: cell-based
B16-F10 [9] = experiment: Cytotoxicity against mouse B16-F10 cells assessed as reduction in cell viability at 0.01 to 100 uM measured after 24 hrs by RealTime-glo cell viability assay; assay type: functional, cell-based; settings: dose 0.01-100 µM
[10] = Toxicity in mouse B16-F10 cells implanted C57BL/6 mouse at 5 mg/kg, ip administered daily for 28 days; assay type: organism-based; settings: in vivo, time 28 day
B16-F10 [11] = experiment: Antitumor activity against mouse B16-F10 cells implanted in C57BL/6 mouse assessed as reduction in tumor burden at 5 mg/kg, ip administered every second day for 18 days; assay type: functional, organism-based; settings: time 18.0 day
[12] = Toxicity in 4T1 cells implanted BALB/c mouse assessed as stress at 1.5 to 5 mg/kg, ip administered daily for 18 days; assay type: organism-based; settings: in vivo, 432 h, dose 1.5-5 mg/kg, time 18 day
Mus musculus [13] = experiment: Immunomodulatory activity in mouse 4T1 cells implanted BALB/c mouse assessed as reduction in Ccl2 gene expression at 1.5 to 5 mg/kg, ip administered daily for 18 days by RT-qPCR analysis; assay type: functional, organism-based; settings: dose 1.5-5 mg/kg, time 18.0 day
Mus musculus [14] = experiment: Immunomodulatory activity in mouse 4T1 cells implanted BALB/c mouse assessed as reduction in Ccl5 gene expression at 1.5 to 5 mg/kg, ip administered daily for 18 days by RT-qPCR analysis; assay type: functional, organism-based; settings: dose 1.5-5 mg/kg, time 18.0 day
Mus musculus [15] = experiment: Immunomodulatory activity in mouse 4T1 cells implanted BALB/c mouse assessed as reduction in total macrophage infiltration into tumors at 1.5 to 5 mg/kg, ip administered daily for 18 days by F4/80 staining based immunofluorescence microscopy; assay type: functional, organism-based; settings: dose 1.5-5 mg/kg, time 18.0 day
[16] = molecular target: Vitamin D3 receptor (Mus musculus) (UniProt P48281); experiment: In vivo agonist activity at VDR in mouse B16-F10 cells implanted C57BL/6 mouse assessed as induction of Cyp24al gene in tumor at 5 mg/kg, ip administered 2 times at 24 hrs interval by RT-qPCR analysis; settings: time 48.0 hrs

- Activity [1]: Active
- Activity [2]: Active
- inhibition [3]: Active; Most Efficacious Than Saha
- Activity [16]: Active
Structure (SMILES): CCC(CC)(c1ccc(C(=O)NCCCCC(=O)NO)cc1)c1ccc(OCC(O)C(C)(C)C)c(C)n1 (configuration not stated)
- inhibition (4T1): Active
- inhibition [4]: Active; Induced Higher Levels Of Acetylation Than Saha
- inhibition (4TO7 [5]): Active; Induced Higher Levels Of Acetylation Than Saha
- inhibition (4TO7 [6]): Active; Induced Higher Levels Of Acetylation Than Saha
- inhibition [7]: Active; Acetylation Was Comparable Or Greater Than Saha
- inhibition (B16-F10 [8]): Active; Acetylation Was Comparable Or Greater Than Saha
- Activity (B16-F10 [9]): Active
- Activity [10]: Non-toxic
- Activity (B16-F10 [11]): Active
- Activity [12]: Non-toxic
- Activity (Mus musculus [13]): Active
- Activity (Mus musculus [14]): Active
- Activity (Mus musculus [15]): Active; Significantly Reduced Macrophage Infiltration Into Tumor

From ChEMBL document CHEMBL6177932 (J Med Chem, 2024)
